Experimental data published in US12655139B2, “Isoxazolidines as RIPK1 inhibitors and use thereof” (SANOFI, priority 2020, dated 2026).
Where a name gives a salt, the structure may show the parent alone. Read-outs that look alike come from different tables or passages of the source.

Legend:
[1] = system: U937 cells; experiment: Cellular assay in U937 cells on cell death (necroptosis), TNFα/zVAD.fmk; format: cell-based
Text: Cellular Assay in U937 Cells to Measure the Activity of RIPK1-Inhibitors on Cell Death (Necroptosis).
Cell death was quantified in 96 well plates by determination of the amount of live cell using a CellTiter 96 AQueous reagent (Promega), a calorimetric method to measure the amount of live cells by reducing tetrazolium compound [3-(4,5-dimethylthiazol-2-yl)-5-(3-carboxymethoxyphenyl)-2-(4-sulfophenyl)-2H-tetrazolium, inner salt; MTS] into formazan. Absorbance of formazan was read at 490 nm. The inhibitory activity of the test compound was quantified in a concentration response curve (CRC) experiment. Compounds were obtained as 10 mM stock solutions and were diluted 1 to 10 volumes with DMSO to yield a 1 mM solution. From this solution 2 μl were diluted with 998 μl growth medium. 100 μl of 2 μM compound solution was further diluted sequentially with a dilution factor of 2.5 by adding 150 μl growth medium. A total of 10 concentrations were tested ranging from 10 μM to 0.26 nM or from 1 μM to 0.07 nM.
U937 cells were cultured in RPMI1640 Glutamax and 10% heat inactivated FBS. 50 μl cell suspension containing 1×10^6 cells/ml supplemented with 50 μM zVAD.fmk (Benzyloxycarbonyl-Val-Ala-Asp (OMe) fluoromethylketone) and 100 ng/ml recombinant human TNFα were dispensed in each well of a 96-well plate. 50 μl of compound dilutions (see above) were added and the cell suspension incubated overnight (18 to 24 hours) at 37° C., 5% CO2 in a humidified atmosphere (95% rH). High (no compound) and low control (no TNFα, zVAD.fmk) were tested with 7 replicates; all compound concentrations were tested in duplicates on each experimental plate.
CellTiter 96 Aqueous reagent was mixed (100 μl PMS (phenazine methosulfate) solution/2 ml MTS (3-(4,5-[…])-5-(3-carboxymethoxyphenyl)-2-(4-sulfophenyl)-2H-tetrazolium, inner salt) solution) and 20 μl were added per well. After 4 hours incubation at 37° C. (5% CO2 95% rH) optical density was measured at 490 nm on a microplate reader (Tecan Infinite M1000).
The % inhibition is expressed as percentage of the maximal inhibition value obtained in the absence of TNFα/zVAD.fmc.

[2] = molecular target: T1, hRIPK1 (aa 1-375) fusion protein (Homo sapiens, UniProt Q13546); experiment: ADP-Glo kinase assay, RIPK1 autophosphorylation; format: biochemical
T1 construct: hRIPK1 (aa 1-375) fusion protein
T1 sequence (Q13546 1-375): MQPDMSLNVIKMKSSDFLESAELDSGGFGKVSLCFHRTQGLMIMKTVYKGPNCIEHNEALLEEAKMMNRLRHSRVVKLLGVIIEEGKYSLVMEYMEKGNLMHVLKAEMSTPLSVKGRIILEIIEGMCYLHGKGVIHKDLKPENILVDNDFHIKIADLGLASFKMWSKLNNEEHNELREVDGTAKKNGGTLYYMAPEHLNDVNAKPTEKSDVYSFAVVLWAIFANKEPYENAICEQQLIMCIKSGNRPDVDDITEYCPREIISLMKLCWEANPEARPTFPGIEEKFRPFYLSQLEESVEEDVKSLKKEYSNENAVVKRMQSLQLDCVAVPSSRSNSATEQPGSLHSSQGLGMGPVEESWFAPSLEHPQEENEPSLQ
Protocol: Evaluation of Receptor-Interacting Protein Kinase 1 Inhibition.
The catalytic activity of RIPK1 was measured by monitoring the conversion of Adenosine triphosphate (ATP) to Adenosine diphosphate (ADP) due to autophosphorylation using an ADP-Glo kinase kit (Promega, catalog no. V9104).
After another 240 minutes incubation at room temperature, 5 μl Promega ADP-Glo reagent I were added to quench the reaction and deplete unconsumed ATP. After an incubation period of 30 minutes, 10 μl Promega ADP-Glo detection reagent II were added resulting in conversion of ADP to ATP, which generates a light-reaction between luciferase and luciferin. Luminescence was quantified after 30 minutes with a Pherastar FS (BMG LABTECH, Ortenberg).
The adjustment was obtained by nonlinear regression using the Levenberg Marquardt algorithm.

[3] = Homo sapiens, U-937, Table 2, read-out: U937 IC50

Row | Compound | IC50 ([2]; Table 1) [µM] | IC50 ([2]; Key compound table 4) [µM] | IC50 ([1]; Table 2, read-out: U937 IC50) [µM] | IC50 [1, 3] [µM] | IC50 ([1]; Homo sapiens, U-937, Key compound table 4, read-out: U937 IC50 (uM) Mean) [µM]
1 | 2-[(3R,4R)-4-[(3S)-3-(5-cyano-3-pyridyl)isoxazolidine-2-carbonyl]-3-fluoro-1-piperidyl]pyrimidine-4-carboxamide and 2-[(3S,4S)-4-[(3S)-3-(5-cyano-3-pyridyl)isoxazolidine-2-carbonyl]-3-fluoro-1-piperidyl]pyrimidine-4-carboxamide [Ex. 092] | 0.0122 | – | 0.0502 | – | –
2 | NC(=O)c1cc(N2CCC(C(=O)N3OCCC3C3CCCOC3)CC2)ncn1 (racemic) [Ex. 023*, 6-[4-[3-Tetrahydropyran-3-ylisoxazolidine-2-carbonyl]-1-piperidyl]pyrimidine-4-carboxamide TFA salt] | 0.797 | – | – | 4.67 | –
3 | NC(=O)c1ccnc(N2CCC(C(=O)N3OCCC3c3cncc(CO)c3)CC2)n1 (racemic) [Ex. 025*, 2-[4-[3-[5-(Hydroxymethyl)-3-pyridyl]isoxazolidine-2-carbonyl]-1-piperidyl]pyrimidine-4-carboxamide] | 0.0516 | – | – | 0.498 | –
4 | NC(=O)c1cncc(C2CCON2C(=O)C2CCN(c3cc(C(N)=O)ncn3)CC2)c1 (racemic) [Ex. 030*] | 0.247 | – | – | 4.17 | –
5 | N#Cc1ccnc(N2CCC(C(=O)N3OCCC3c3cncc(CO)c3)CC2)n1 (racemic) [Ex. 031*] | 0.0515 | – | – | 0.395 | –
6 | NC(=O)c1cc(N2CCC(C(=O)N3OCCC3c3cncc(CO)c3)CC2)ncn1 (racemic) [Ex. 032*, 6-[4-[3-[5-(Hydroxymethyl)-3-pyridyl]isoxazolidine-2-carbonyl]-1-piperidyl]pyrimidine-4-carboxamide TFA salt] | 0.18 | – | – | 2.44 | –
7 | NC(=O)c1ccnc(N2CCC(C(=O)N3OCCC3c3ccc(N)nc3)CC2)n1 (racemic) [Ex. 036*] | 0.0489 | – | – | 0.198 | –
8 | N#Cc1ccnc(N2CCC(C(=O)N3OCCC3c3ccc(N)nc3)CC2)n1 (racemic) [Ex. 037*] | 0.0315 | – | – | 0.177 | –
9 | NC(=O)c1cc(N2CCC(C(=O)N3OCC[C@H]3c3ccc(N)nc3)CC2)ncn1 (racemic) [Ex. 038*] | 0.0899 | – | – | 1.71 | –
10 | Cn1cc(C2CCON2C(=O)C2CCN(c3nccc(C(N)=O)n3)CC2)cn1 (racemic) [Ex. 046*] | 0.0651 | – | – | 0.605 | –
11 | Cn1cc(C2CCON2C(=O)C2CCN(c3nccc(C#N)n3)CC2)cn1 (racemic) [Ex. 047*] | 0.0649 | – | – | 0.549 | –
12 | NC(=O)c1cc(N2CCC(C(=O)N3OCCC3c3cncc(F)c3)CC2)ncn1 (racemic) [Ex. 048*] | 0.0332 | – | – | 0.133 | –
13 | N#Cc1cc(N2CCC(C(=O)N3OCCC3c3cncc(F)c3)CC2)ncn1 (racemic) [Ex. 049*] | 0.00999 | – | – | 0.0411 | –
14 | NC(=O)c1ccnc(N2CCC(C(=O)N3OCCC3c3cncc(F)c3)CC2)n1 (racemic) [Ex. 050*] | 0.0267 | – | – | 0.0329 | –
15 | N#Cc1cncc([C@@H]2CCON2C(=O)C2CCN(c3cc(C(N)=O)ncn3)CC2)c1 [Ex. 001] | 0.0326 | – | – | 0.133 | –
16 | N#Cc1cncc([C@@H]2CCON2C(=O)C2CCN(c3nccc(C(N)=O)n3)CC2)c1 [Ex. 004] | – | 0.016 | – | – | 0.022
17 | N#Cc1cncc([C@@H]2CCON2C(=O)C2CCN(c3nccc(C(=O)O)n3)CC2)c1 [Ex. 009] | 4.69 | – | – | > 10 | –
18 | N#Cc1cncc([C@H]2CCON2C(=O)C2CCN(c3nccc(C(N)=O)n3)CC2)c1 [Ex. 016] | 18.8 | – | – | – | –

Continued, in another order:

Row | IC50 ([2]; Table 1) [µM] | IC50 ([2]; Key compound table 4) [µM] | Compound | IC50 ([1]; Table 2, read-out: U937 IC50) [µM] | IC50 [1, 3] [µM] | IC50 ([1]; Homo sapiens, U-937, Key compound table 4, read-out: U937 IC50 (uM) Mean) [µM]
19 | 0.0263 | – | N#Cc1cncc([C@@H]2CCON2C(=O)C2(F)CCN(c3nccc(C#N)n3)CC2(F)F)c1 (mixture of isomers) [Ex. 123] | – | 0.0442 | –
20 | 0.134 | – | COC(=O)c1ccnc(N2CCC(C(=O)N3OCCC3c3cncc(F)c3)CC2)n1 (racemic) [Ex. 051*, Methyl 2-[4-[3-(5-fluoro-3-pyridyl)isoxazolidine-2-carbonyl]-1-piperidyl]pyrimidine-4-carboxylate] | – | 0.678 | –
21 | 0.767 | – | O=C(O)c1ccnc(N2CCC(C(=O)N3OCCC3c3cncc(F)c3)CC2)n1 (racemic) [Ex. 054*] | – | > 10 | –
22 | 0.0649 | – | Cn1ccc(C2CCON2C(=O)C2CCN(c3nccc(C#N)n3)CC2)n1 (racemic) [Example 007, 2-[4-[3-(1-methylpyrazol-3-yl)isoxazolidine-2-carbonyl]-1-piperidyl] pyrimidine-4-carbonitrile] | – | 2.42 | –
23 | 0.729 | – | N#Cc1ccnc(N2CCC(C(=O)N3OCCC3c3ccc4nccn4c3)CC2)n1 (racemic) [Example 014, 2-[4-[3-imidazo[1,2-a]pyridin-6-ylisoxazolidine-2-carbonyl]-1-piperidyl] pyrimidine-4-carbonitrile TFA salt] | – | > 10 | –
24 | 13.1 | – | NC(=O)c1cc(N2CCC(C(=O)N3OCCC3c3ccc4nccn4c3)CC2)ncn1 (racemic) [Example 015, 6-[4-[3-imidazo[1,2-a]pyridin-6-ylisoxazolidine-2-carbonyl]-1-piperidyl] pyrimidine-4-carboxamide TFA salt] | – | – | –
25 | 0.156 | – | NC(=O)c1ccnc(N2CCC(C(=O)N3OCCC3C3CCCOC3)CC2)n1 (racemic) [Example 024, 2-[4-[3-Tetrahydropyran-3-ylisoxazolidine-2-carbonyl]-1-piperidyl]pyrimidine-4-carboxamide] | – | 0.834 | –
26 | 0.193 | – | CNC(=O)c1cncc(C2CCON2C(=O)C2CCN(c3nccc(C#N)n3)CC2)c1 (racemic) [Example 042, 5-[2-[1-(4-cyanopyrimidin-2-yl)piperidine-4-carbonyl]isoxazolidin-3-yl]-N-methyl-pyridine-3-carboxamide] | – | 6.01 | –
27 | > 33 | – | NC(=O)c1ccnc(N2CCC(C(=O)N3OCCC3c3cncc(F)c3)CC2)n1 (single isomer, unassigned) [Ex. 069] | – | > 10 | –
28 | 0.0305 | – | N#Cc1cncc([C@@H]2CCON2C(=O)[C@@H]2CCN(c3nccc(C(N)=O)n3)C[C@@H]2F)c1 (single isomer, unassigned) [Ex. 095] | – | 0.12 | –
29 | 0.022 | – | Cc1ccc([C@@H]2CCON2C(=O)C2CCN(c3cc(C(N)=O)ncn3)CC2)s1 (single isomer, unassigned) [Ex. 176] | – | 0.00371 | –
30 | 0.297 | – | Cc1ccc(C2CCON2C(=O)C2CCN(c3ncc(C)c(C(N)=O)n3)CC2F)cn1 (single isomer, unassigned) [Ex. 185] | 1.15 | – | –
31 | 0.026 | – | N#Cc1cncc([C@@H]2CCON2C(=O)[C@H]2CCN(c3nccc(C(N)=O)n3)C[C@H]2F)c1 (single isomer, unassigned) [compound 96] | – | 0.204 | –
32 | 0.443 | – | N#Cc1cncc([C@@H]2CCON2C(=O)C2CCN(c3nccc(C(=O)O)n3)CC2)c1 (single isomer, unassigned) [compound 102] | – | > 10 | –
33 | 0.0384 | – | Cc1ccc(C2CCON2C(=O)C2CCN(c3ncc(C)c(C(N)=O)n3)CC2F)cn1 (single isomer, unassigned) [compound 186] | 0.148 | – | –
34 | 0.0245 | – | COC(=O)c1ccnc(N2CCC(C(=O)N3OCC[C@H]3c3cncc(C#N)c3)CC2)n1 [compound 100] | – | – | –
